Laboratory results taken from US20120184548A1, “CARBOXYLIC ACID ARYL AMIDES” (priority 2011, published 2012).

How the values were obtained:
[1] = test system: SW620 human colon cancer cells; experiment: SW620 Cell Viability Assay (CellTiter-Glo); format: cell-based; settings: SW-620, 96 h, 4 days incubation, read-out: Cellular EC50 SW620
Protocol: 1. Cell Plate Preparation: SW620 human colon cancer cells (known to express DYRK1B), obtained from ATCC, were seeded into 96-well plates at […] in 50 μL of media. • Harvested the required number of cells (counts & viability determined by Guava Viacount). • Centrifuge cells to pellet and removed supernant. • Resuspended in growth media (50 μL/well) & pipetted thoroughly to break up clumps. • Setup for ˜100 wells/plate, therefore, VT=5 mL/plate @ 1.2×10^5 cells/mL. 1A. Some cells (S-) were allowed to attach for 24 hrs, serum starved for 48 hrs, and then followed with treatments of test compound.
Test Compound solution was prepared in regular corresponding media supplemented with serum
2. Test Compound Preparation: Test compounds were solubilized in either DMSO or media and prepared at various stock concentrations. • All compounds were incubated at 37° C. for 30 minutes and vortexed. • (5 mM stocks of test compound were prepared for non-soluble drugs)
3. Test Compound Plate Preparation:
• The 10 mM test compound stock was diluted to a concentration of 100× the final Cmax concentration. • Then the test compound stock is diluted 50-fold in media and/or second test compound for a final Cmax concentration in the test compound plate. • The Cmax in the test compound plate (2% DMSO) is 2-fold higher than the final Cmax in the cell plate (60 uL titrations were 1:3). 4. Viability Assay: This assay was performed as follows: • Transfer 50 μL of test compound solution per well from the test compound plate onto the cell plate prepared in Step #1. • Mix the plate with treated cells by pipetting up and down three times with 200 μL multi-channel pipet. • Incubate the cells in 5% CO2 incubator @ 37° C. for 4 days. • Run the CellTiter-Glo™ Luminescent Cell Viability Assay. The results of this assay, given as EC50 values, indicate the concentration of test compound that inhibits tumor cell proliferation by 50%.

Human DYRK1B = target: T1, Human DYRK1B (Homo sapiens, UniProt Q9Y463); experiment: DYRK1B Kinase TR-FRET (IMAP-Tb) Assay; format: biochemical; settings: TR-FRET; ATP 70 μM; 37° C. for 60 minutes; averages of multiple runs; read-out: Enzyme IC50 DYRK1B
T1 construct: purchased Invitrogen PR8350B (former PV4649)
From the text: The kinase TR-FRET (IMAP-Tb) assay uses a fluorescence labeled substrate peptide in the kinase reaction. Upon phosphorylation by the kinase, phosphopeptide is produced, which will be detected by the binding solution provided in IMAP TR-FRET binding kit. After the completion of the kinase reaction, the reaction will be stopped by adding the binding solution containing terbium tracer. This tracer is immobilized on the surface of the IMAP beads, which also contain metal ions on the beads that bind to the phospho-groups of the products. Thus the phosphorylated product of the reaction can enter into close proximity to the tracer, producing resonance energy transfer. Due to the long lifetime of terbium (Tb) fluorescence the detection can be run in time resolved mode, which virtually eliminates fluorescence interference from assay components or compounds. […] IC50 is the amount of test compound that inhibits 50% of the activity of DYRK1B in this assay. […] 1. Human DYRK1B: from Invitrogen. Part # PR8350B (former PV4649) 2. Substrate Peptide: RRRFRPASPLRGPPK 3. IMAP TR-FRET IPP Explorer Kit: from Molecular Devices. Part # R8157 4. Kinase Assay Buffer (KAB): 10 mM HEPES pH 7.0, 50 mM NaCl, 5 mM MgCl2, 1 mM DTT, 1 mM NaVO4, 200 μg/mL BSA (0.02%) 5. Assay Plate: Remp polypropylene clear 384-well microplate. Cat#23490-102 6. Detection Plate: Costa black 384-well microplate. Cat #3710 Assay Procedure: This assay was performed as follows: 1. Transfer 1.5 μL of 20× compound solution to each well of an assay plate. 2. Add to each well 22.5 μL of KAB Buffer. 3. Add to each well 3 μL of the solution of DYRK1B and ATP. […] Add to each well 3 μL of the substrate peptide. […] Incubate the assay plates at 37° C. for 60 minutes. 6. Add 18 μL of Detection Solution (1:800 diluted Progress bead stock, 1:400 diluted Tb stock, 80% Buffer A, and 20% Buffer B) into each well of detection plates. 7. Transfer 6 μL of assay solution from the assay plate to the detection plate. 8. Shake detection plates for 30 minutes. 9. Read plates in Envision with wavelength set at excitation 340 nm for Tb, emission 490 nm, and […]. 10. Calculation: TR-FRET Signal=(Reading at […])×2000000

Human DYRK1A = target: T2, Human DYRK1A (Homo sapiens, UniProt Q13627); experiment: DYRK1A Kinase TR-FRET (IMAP-Tb) Assay; format: biochemical; settings: TR-FRET; ATP 70 μM; 37° C. for 60 minutes; averages of multiple runs; read-out: Enzyme IC50 DYRK1A
T2 construct: purchased Invitrogen PV3997
From the text: The kinase TR-FRET (IMAP-Tb) assay uses a fluorescence labeled substrate peptide in the kinase reaction. Upon phosphorylation by the kinase, phosphopeptide is produced, which will be detected by the binding solution provided in IMAP TR-FRET binding kit. After the completion of the kinase reaction, the reaction will be stopped by adding the binding solution containing terbium tracer. This tracer is immobilized on the surface of the IMAP beads, which also contain metal ions on the beads that bind to the phospho-groups of the products. Thus the phosphorylated product of the reaction can enter into close proximity to the tracer, producing resonance energy transfer. Due to the long lifetime of terbium (Tb) fluorescence the detection can be run in time resolved mode, which virtually eliminates fluorescence interference from assay components or compounds.
The TR-FRET signal measurement from this assay, given as an IC50 measurement, is a measure of a test compound's ability to interfere with the phosphorylation of the peptide substrate, that is it inhibits the phosphorylation of the substrate peptide by DYRK1A, and is thus a measure of the test compound's ability to inhibit the activity of DYRK1A.
1. Human DYRK1A: from Invitrogen. Part # PV3997
2. Substrate Peptide: […]
3. IMAP TR-FRET IPP Explorer Kit: from Molecular Devices. Part # R8157 4. Kinase Assay Buffer (KAB): 10 mM HEPES pH 7.0, 50 mM NaCl, 5 mM MgCl2, 1 mM DTT, 1 mM NaVO4, 200 μg/mL BSA (0.02%) 5. Assay Plate: Remp polypropylene clear 384-well microplate. […] Detection Plate: Costa black 384-well microplate. […] Transfer 1.5 μL of 20× compound solution to each well of an assay plate. 2. Add to each well 22.5 μL of KAB Buffer. 3. Add to each well 3 μL of the solution of DYRK1A and ATP. […] Add to each well 3 μL of the substrate peptide. The assay concentration is 1.0 μM 5. Incubate the assay plates at 37° C. for 60 minutes. 6. Add 18 μL of Detection Solution (1:800 diluted Progress bead stock, 1:400 diluted Tb stock, 80% Buffer A, and 20% Buffer B) into each well of detection plates. 7. Transfer 6 μL of assay solution from the assay plate to the detection plate. 8. Shake detection plates for 30 minutes. 9. Read plates in Envision with wavelength set at excitation 340 nm for Tb, emission 490 nm, and […].

T1 sequence (Q9Y463 whole entry): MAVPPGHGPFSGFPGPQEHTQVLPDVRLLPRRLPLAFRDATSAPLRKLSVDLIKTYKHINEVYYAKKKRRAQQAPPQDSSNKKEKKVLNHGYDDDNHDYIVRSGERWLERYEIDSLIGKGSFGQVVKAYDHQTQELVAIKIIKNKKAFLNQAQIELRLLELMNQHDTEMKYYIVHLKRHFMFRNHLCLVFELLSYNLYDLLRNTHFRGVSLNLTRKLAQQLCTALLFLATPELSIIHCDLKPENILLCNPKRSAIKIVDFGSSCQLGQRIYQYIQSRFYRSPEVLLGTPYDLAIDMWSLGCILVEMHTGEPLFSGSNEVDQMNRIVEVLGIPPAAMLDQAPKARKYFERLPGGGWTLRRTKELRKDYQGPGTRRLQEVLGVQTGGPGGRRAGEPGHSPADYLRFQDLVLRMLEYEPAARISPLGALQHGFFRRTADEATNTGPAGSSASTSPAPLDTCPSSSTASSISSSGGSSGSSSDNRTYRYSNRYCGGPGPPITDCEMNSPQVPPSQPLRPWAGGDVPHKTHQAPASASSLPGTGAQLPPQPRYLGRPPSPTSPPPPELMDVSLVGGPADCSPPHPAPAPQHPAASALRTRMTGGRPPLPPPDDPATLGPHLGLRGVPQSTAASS

For `COCCOc1cc2cc(C(=O)Nc3cc(C(=O)NC(CCN)c4ccccc4)ccc3C)c(=O)[nH]c2cc1OC` (stereo not drawn) [Example 38, 7-Methoxy-6-(2-methoxy-ethoxy)-2-oxo-1,2-dihydro-quinoline-3-carboxylic acid [5-(3-amino-1-phenyl-propylcarbamoyl)-2-methyl-phenyl]-amide], the EC50 [1] was 2760 nM, the IC50 (Human DYRK1B) was 44.8 nM and the IC50 (Human DYRK1A) was 34.7 nM.
`COC(=O)c1ccc(C)c(NC(=O)c2cc3cc(OCCN4CCOCC4)c(OC)cc3[nH]c2=O)c1` [Example 39, 3-{[7-Methoxy-6-(2-morpholin-4-yl-ethoxy)-2-oxo-1,2-dihydro-quinoline-3-carbonyl]-amino}-4-methyl-benzoic acid methyl ester] gave an EC50 [1] of 3410 nM, an IC50 (Human DYRK1B) of 190 nM and an IC50 (Human DYRK1A) of 150 nM.
For `COc1cc2cc(C(=O)Nc3cc(C(=O)NCc4ccccc4)ccc3C)c(=O)[nH]c2cc1OC` [Example 42, 6,7-Dimethoxy-2-oxo-1,2-dihydro-quinoline-3-carboxylic acid (5-benzylcarbamoyl-2-methyl-phenyl)-amide], the EC50 [1] was over 10000 nM, the IC50 (Human DYRK1B) was 320 nM and the IC50 (Human DYRK1A) was 226 nM.
`COc1cc2[nH]c(=O)c(C(=O)Nc3cc(C(=O)NCc4cccc(Cl)c4)ccc3C)cc2cc1OCCN1CCOCC1` [Example 43, 7-Methoxy-6-(2-morpholin-4-yl-ethoxy)-2-oxo-1,2-dihydro-quinoline-3-carboxylic acid [5-(3-chloro-benzylcarbamoyl)-2-methyl-phenyl]-amide] gave an EC50 [1] of 306 nM, an IC50 (Human DYRK1B) of 178 nM and an IC50 (Human DYRK1A) of 6 nM.
Compound `COc1cc2[nH]c(=O)c(C(=O)Nc3cc(C(=O)NC(CCN)c4ccccc4)ccc3C)cc2cc1OCCN1CCOCC1` (stereo not drawn) [Example 44, 7-Methoxy-6-(2-morpholin-4-yl-ethoxy)-2-oxo-1,2-dihydro-quinoline-3-carboxylic acid [5-(3-amino-1-phenyl-propylcarbamoyl)-2-methyl-phenyl]-amide] has an EC50 [1] of over 3000 nM, an IC50 (Human DYRK1B) of 63 nM and an IC50 (Human DYRK1A) of 33.4 nM.
`COCCOc1cc2cc(C(=O)Nc3cc(C(=O)NCc4cccc(Cl)c4)ccc3C)c(=O)[nH]c2cc1OC` [Example 52, 7-Methoxy-6-(2-methoxy-ethoxy)-2-oxo-1,2-dihydro-quinoline-3-carboxylic acid [5-(3-chloro-benzylcarbamoyl)-2-methyl-phenyl]-amide] showed an EC50 [1] of 780 nM, an IC50 (Human DYRK1B) of 181 nM and an IC50 (Human DYRK1A) of 118 nM.
`COCCOc1cc2cc(C(=O)Nc3cc(C(=O)OC)ccc3Cl)c(=O)[nH]c2cc1OC` [Example 53, Methyl 4-chloro-3-(7-methoxy-6-(2-methoxyethoxy)-2-oxo-1,2-dihydroquinoline-3-carboxamido)benzoate] gave an EC50 [1] of over 10000 nM, an IC50 (Human DYRK1B) of 115 nM and an IC50 (Human DYRK1A) of 245 nM.
For `COCCOc1cc2cc(C(=O)Nc3cc(C(=O)NCc4cccc(Cl)c4)ccc3Cl)c(=O)[nH]c2cc1OC` [Example 55, N-(2-Chloro-5-(3-chlorobenzylcarbamoyl)phenyl)-7-methoxy-6-(2-methoxyethoxy)-2-oxo-1,2-dihydroquinoline-3-carboxamide], the EC50 [1] was 129 nM, the IC50 (Human DYRK1B) was 37.3 nM and the IC50 (Human DYRK1A) was 48.9 nM.
For `COc1cc2cc(C(=O)Nc3cc(C(=O)N[C@H](CO)c4ccccc4)ccc3C)c(=O)[nH]c2cc1OC` [Example 57, (S)-N-(5-(2-Hydroxy-1-phenylethylcarbamoyl)-2-methylphenyl)-6,7-dimethoxy-2-oxo-1,2-dihydroquinoline-3-carboxamide], the EC50 [1] was 6500 nM, the IC50 (Human DYRK1B) was 883 nM and the IC50 (Human DYRK1A) was 186 nM.
`COCCOc1cc2cc(C(=O)Nc3cc(C(=O)NC(CN)c4cccc(Cl)c4)ccc3Cl)c(=O)[nH]c2cc1OC` (stereo not drawn) [Example 60, N-(5-(2-Amino-1-(3-chlorophenyl)ethylcarbamoyl)-2-chlorophenyl)-7-methoxy-6-(2-methoxyethoxy)-2-oxo-1,2-dihydroquinoline-3-carboxamide] showed an EC50 [1] of 200 nM, an IC50 (Human DYRK1B) of 21.7 nM and an IC50 (Human DYRK1A) of 14.3 nM.
Compound `COCCOc1cc2cc(C(=O)Nc3cc(C(=O)NC(CCN)c4ccccc4)ccc3Cl)c(=O)[nH]c2cc1OC` (stereo not drawn) [Example 61, N-(5-(3-Amino-1-phenylpropylcarbamoyl)-2-chlorophenyl)-7-methoxy-6-(2-methoxyethoxy)-2-oxo-1,2-dihydroquinoline-3-carboxamide] has an EC50 [1] of 470 nM, an IC50 (Human DYRK1B) of 11.5 nM and an IC50 (Human DYRK1A) of 15.7 nM.
For `COCCOc1cc2cc(C(=O)Nc3cc(C(=O)NC(CN)c4ccccc4)ccc3Cl)c(=O)[nH]c2cc1OC` (stereo not drawn) [Example 62, N-(5-(2-Amino-1-phenylethylcarbamoyl)-2-chlorophenyl)-7-methoxy-6-(2-methoxyethoxy)-2-oxo-1,2-dihydroquinoline-3-carboxamide], the EC50 [1] was 440 nM, the IC50 (Human DYRK1B) was 29.1 nM and the IC50 (Human DYRK1A) was 11.4 nM.
In the case of `COCCOc1cc2cc(C(=O)Nc3cc(C(=O)N[C@H](CCN)c4ccccc4)ccc3Cl)c(=O)[nH]c2cc1OC` [Example 63, (R)-N-(5-(3-Amino-1-phenylpropylcarbamoyl)-2-chlorophenyl)-7-methoxy-6-(2-methoxyethoxy)-2-oxo-1,2-dihydroquinoline-3-carboxamide], the EC50 [1] is reported as 640 nM, the IC50 (Human DYRK1B) is reported as 8 nM and the IC50 (Human DYRK1A) is reported as 5 nM.
